Assay [1] deals with adenylate cyclase. The conditions noted are these: for % Relative Activity: adenylate cyclase activity relative to glucagon, liver membranes, analogs measured as amides; for pA2: negative logarithm of antagonist concentration reducing response to 1 unit agonist to that of 0.5 unit, measured as amides. How it is done: Adenylate Cyclase Assay. The assay on liver membranes was performed according to Salomon et al. [Salomon, Y., Londos, C. & rodgell, M. Anal. Biochem. 58, 541, 548 (1974)]. The released cAMP was mixed with [8-^3 H]cAMP measured with a high affinity cAMP binding protein.
The purpose of the adenylate cyclase assay is to measure the ability of the compound under test to stimulate the activity of adenylate cyclase. The assays are used to measure relative potency, maximum activity and inhibition index.
The inhibition index, defined above, was determined from adenylate cyclase assays by two different protocols.
1. A glucagon standard curve for cAMP vs glucagon concentration was established. Then another glucagon assay curve was measured in the presence of a constant amount of antagonist.
2. A series of tubes were set up containing an amount of glucagon which will produce 90% of maximum response. Increasing amounts of antagonist were then added and the concentration that reduced the response to 45% of maximum was determined.

A further assay deals with glucagon receptor (Homo sapiens, UniProt P47871). The conditions noted are these: background statement; cited from earlier work.
glucagon receptor, sequence (P47871 26-477, species assumed): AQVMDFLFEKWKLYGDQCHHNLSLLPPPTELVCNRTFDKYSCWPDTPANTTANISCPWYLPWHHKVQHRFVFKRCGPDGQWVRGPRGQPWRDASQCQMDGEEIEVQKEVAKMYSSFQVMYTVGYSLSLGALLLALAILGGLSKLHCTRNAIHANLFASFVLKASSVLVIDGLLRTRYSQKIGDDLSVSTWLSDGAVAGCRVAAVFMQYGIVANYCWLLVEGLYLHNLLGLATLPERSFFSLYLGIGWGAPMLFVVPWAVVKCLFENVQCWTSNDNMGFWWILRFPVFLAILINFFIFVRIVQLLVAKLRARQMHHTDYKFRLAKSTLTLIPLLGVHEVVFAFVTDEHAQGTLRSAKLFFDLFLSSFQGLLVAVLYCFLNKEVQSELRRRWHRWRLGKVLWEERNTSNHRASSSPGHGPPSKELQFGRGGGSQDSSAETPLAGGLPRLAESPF
Assay [2] deals with adenylate cyclase. Particulars: background statement; cited from earlier work.

Residues, ends and D or L forms follow the SMILES beside them. No end group written: not given here.

For `CCCC[C@H](NC(=O)[C@H](CO)NC(=O)[C@@H](NC(=O)[C@H](Cc1ccccc1)NC(=O)[C@@H](NC(=O)CNC(=O)[C@H](CCC(N)=O)NC(=O)[C@H](CO)NC(=O)[C@@H](N)Cc1c[nH]cn1)[C@@H](C)O)[C@@H](C)O)C(=O)N[C@@H](Cc1ccc(O)cc1)C(=O)N[C@@H](C)C(=O)N[C@@H](CCCCN)C(=O)N[C@@H](Cc1ccc(O)cc1)C(=O)N[C@@H](CC(C)C)C(=O)N[C@@H](CC(=O)O)C(=O)N[C@@H](CCC(N)=O)C(=O)N[C@@H](CCCNC(=N)N)C(=O)N[C@@H](CCCNC(=N)N)C(=O)N[C@@H](C)C(=O)N[C@@H](CCC(N)=O)C(=O)N[C@@H](CC(=O)O)C(=O)N[C@@H](Cc1ccccc1)C(=O)N[C@H](C(=O)N[C@@H](CCC(N)=O)C(=O)N[C@@H](Cc1c[nH]c2ccccc12)C(=O)N[C@@H](CC(C)C)C(=O)N[C@@H](CCSC)C(=O)N[C@@H](CC(N)=O)C(=O)N[C@H](C(N)=O)[C@@H](C)O)C(C)C` [Analog 1, Nle^9 Ala^11 Gln^16] (HELM PEPTIDE1{H.S.Q.G.T.F.T.S.[Nle].Y.A.K.Y.L.D.Q.R.R.A.Q.D.F.V.Q.W.L.M.N.T.[am]}$$$$V2.0), in the assay with adenylate cyclase [1], the “% Relative Activity” value is recorded as 0.003% and the pA2 (commonly the negative logarithm of the molar antagonist concentration that doubles the agonist concentration needed for the same response) is 8.7.
In the same order, the values of `CCCC[C@H](NC(=O)[C@H](CO)NC(=O)[C@@H](NC(=O)[C@H](Cc1ccccc1)NC(=O)[C@@H](NC(=O)CNC(=O)[C@H](CCC(N)=O)NC(=O)[C@@H](N)CO)[C@@H](C)O)[C@@H](C)O)C(=O)N[C@@H](Cc1ccc(O)cc1)C(=O)N[C@@H](CO)C(=O)N[C@@H](CCCCN)C(=O)N[C@@H](Cc1ccc(O)cc1)C(=O)N[C@@H](CC(C)C)C(=O)N[C@@H](CC(=O)O)C(=O)N[C@@H](C)C(=O)N[C@@H](CCCNC(=N)N)C(=O)N[C@@H](CCCNC(=N)N)C(=O)N[C@@H](C)C(=O)N[C@@H](CCC(N)=O)C(=O)N[C@@H](CC(=O)O)C(=O)N[C@@H](Cc1ccccc1)C(=O)N[C@H](C(=O)N[C@@H](CCC(N)=O)C(=O)N[C@@H](Cc1c[nH]c2ccccc12)C(=O)N[C@@H](CC(C)C)C(=O)N[C@@H](CCSC)C(=O)N[C@@H](CC(N)=O)C(=O)N[C@H](C(N)=O)[C@@H](C)O)C(C)C` [Analog 2, des-His^1 Nle^9 Ala^16] (HELM PEPTIDE1{S.Q.G.T.F.T.S.[Nle].Y.S.K.Y.L.D.A.R.R.A.Q.D.F.V.Q.W.L.M.N.T.[am]}$$$$V2.0) are 0.001% and 8.4.
For `CCCC[C@H](NC(=O)[C@H](CO)NC(=O)[C@@H](NC(=O)[C@H](Cc1ccccc1)NC(=O)[C@@H](NC(=O)CNC(=O)[C@H](CCC(N)=O)NC(=O)[C@@H](N)CO)[C@@H](C)O)[C@@H](C)O)C(=O)N[C@@H](Cc1ccc(O)cc1)C(=O)N[C@@H](C)C(=O)N[C@@H](CCCCN)C(=O)N[C@@H](Cc1ccc(O)cc1)C(=O)N[C@@H](CC(C)C)C(=O)N[C@@H](CC(=O)O)C(=O)N[C@@H](C)C(=O)N[C@@H](CCCNC(=N)N)C(=O)N[C@@H](CCCNC(=N)N)C(=O)N[C@@H](C)C(=O)N[C@@H](CCC(N)=O)C(=O)N[C@@H](CC(=O)O)C(=O)N[C@@H](Cc1ccccc1)C(=O)N[C@H](C(=O)N[C@@H](CCC(N)=O)C(=O)N[C@@H](Cc1c[nH]c2ccccc12)C(=O)N[C@@H](CC(C)C)C(=O)N[C@@H](CCSC)C(=O)N[C@@H](CC(N)=O)C(=O)N[C@H](C(N)=O)[C@@H](C)O)C(C)C` [Analog 3, des-His^1 Nle^9 Ala^11 Ala^16] (HELM PEPTIDE1{S.Q.G.T.F.T.S.[Nle].Y.A.K.Y.L.D.A.R.R.A.Q.D.F.V.Q.W.L.M.N.T.[am]}$$$$V2.0), in that order: 0.0043% and 8.4.
For `CCCC[C@H](NC(=O)[C@H](CO)NC(=O)[C@@H](NC(=O)[C@H](Cc1ccccc1)NC(=O)[C@@H](NC(=O)CNC(=O)[C@H](CCC(N)=O)NC(=O)[C@@H](N)CO)[C@@H](C)O)[C@@H](C)O)C(=O)N[C@@H](Cc1ccc(O)cc1)C(=O)N[C@@H](C)C(=O)N[C@@H](CCCCN)C(=O)N[C@@H](Cc1ccc(O)cc1)C(=O)N[C@@H](CC(C)C)C(=O)N[C@@H](CC(=O)O)C(=O)N[C@@H](CCC(N)=O)C(=O)N[C@@H](CCCNC(=N)N)C(=O)N[C@@H](CCCNC(=N)N)C(=O)N[C@@H](C)C(=O)N[C@@H](CCC(N)=O)C(=O)N[C@@H](CC(=O)O)C(=O)N[C@@H](Cc1ccccc1)C(=O)N[C@H](C(=O)N[C@@H](CCC(N)=O)C(=O)N[C@@H](Cc1c[nH]c2ccccc12)C(=O)N[C@@H](CC(C)C)C(=O)N[C@@H](CCSC)C(=O)N[C@@H](CC(N)=O)C(=O)N[C@H](C(N)=O)[C@@H](C)O)C(C)C` [Analog 4, des-His^1 Nle^9 Ala^11 Gln^16] (HELM PEPTIDE1{S.Q.G.T.F.T.S.[Nle].Y.A.K.Y.L.D.Q.R.R.A.Q.D.F.V.Q.W.L.M.N.T.[am]}$$$$V2.0), in that order: 0.0011% and 8.4.
Consider “Nα-trinitrophenyl [12-homoarginine]glucagon”, for which the “binding to the glucagon receptor” value on glucagon receptor was “does bind to the glucagon receptor”. Also, the “activation of adenylate cyclase” value in the assay with adenylate cyclase [2] is listed as “without significant activation of adenylate cyclase”.
Turning to “SQGTFTSEYAKYLDARRAQEFVQWLMNT-NH2 [Analog 5, des-His^1 Glu^9 Ala^11 Ala^16 Glu^21]”, in the assay with adenylate cyclase [1], the “% Relative Activity” value is given as 0.016% and the pA2 is listed as 8.5.

These data come from US5480867A, “Glucagon analogs with serine replacements” (The Rockefeller University, priority 1994, dated 1996).
